Source: article PMC11748363, “Antimicrobial and Antiproliferative Properties of 2‐Phenyl‐N‐(Pyridin‐2‐yl)acetamides” (Chemical Biology & Drug Design, 2025)
In brackets after ≈: the same amount, converted by molar mass. Read-outs that look alike come from different tables or passages of the source.

What was measured:
HepG2 cell line = assay: Cytotoxicity CellTiter 96, HepG2; type: cell-based, human; details: 24 h incubation, ^c compound precipitated in the testing medium, ^d over the limit of tested concentrations
[1] = system: Mycolicibacterium aurum DSM 43999; assay: Antimycobacterial microdilution broth MIC (resazurin), M. aurum; type: cell-based; details: DSM43999, read-out: MIC M. aurum
[2] = system: Trichophyton interdigitale CCM 8377, ATCC 9533; assay: Antifungal microdilution broth MIC, TI; details: Trichophyton interdigitale
[3] = system: Staphylococcus epidermidis CCM 4418, ATCC 12228; assay: Antibacterial microdilution broth MIC, SE; type: cell-based
HK‐2 cell line = assay: Cytotoxicity CellTiter 96, HK-2 normal cell line; type: cell-based; details: Homo sapiens, 24 h incubation
Experimental: (§1) The cytotoxicity of final compounds was determined in human hepatocellular carcinoma cell line HepG2. Additional testing of selected compounds was performed on human epithelial kidney cancer cell line A498, human prostate cancer cell line PC‐3, human glioblastoma cell line U‐87 MG, and normal human proximal tubule cell line HK‐2.
1.4. Cytotoxicity determination […]
(§2) For subculturing, the cells were harvested after trypsin/EDTA (Sigma–Aldrich) treatment at 37 °C. To evaluate cytotoxicity, the cells treated with the tested substances were used as experimental groups whereas untreated HepG2 cells served as controls. The cells were seeded in density 10,000 cells per well in a 96 well plate. The next day the cells were treated with each of the tested substances dissolved in DMSO. The tested substances were […]
in triplicates according to their solubility. Simultaneously, the controls representing 100% cell viability, 0% cell viability (the cells treated with 10% DMSO), no cell control and vehiculum controls were also prepared in triplicates. After 24 h incubation in a humidified atmosphere containing 5% CO2 at […], the reagent from the kit CellTiter 96 AQueous One Solution Cell Proliferation Assay (CellTiter 96; PROMEGA, Fitchburg, USA) was added. After 2h incubation at 37 °C, absorbance of samples was recorded at 490 nm (TECAN, Infinita M200, Austria). A standard toxicological parameter IC50 was calculated by nonlinear regression from a semilogarithmic plot of incubation concentration versus percentage of absorbance relative to untre ated controls using GraphPad Prism 8 software.
Human epithelial kidney carcinoma A498 cell line, obtained from American Type Culture Collection (ATCC, Manassas, VA, USA, catalogue No.: HTB -44), was cultured in RPMI medium, Human normal kidney proximal tubule HK-2 cell line obtained from ATCC (ATCC, Manassas, VA, USA, catalogue No.:
CRL-2190) was cultured in DMEM High Glucose medium, Human prostate adenocarcinoma PC-3 cell line, obtained from ATCC (Manassas, VA, USA, catalogue No.: 90112714), was cultured in a Kaighn's Modification of Ham's F-12 Medium and human glioblastoma astrocytoma U-87 MG cell line, obtained from ECACC (ECACC, Salisbury, UK, catalogue No.: 89081402) was cultured in DMEM High Glucose medium. All cultures were supplemented with 10% fetal bovine serum, 1% non-essential amino acids (A498, HK-2 and U-87 MG), 1% sodium pyruvate (A498, HK-2 and U-87 MG) and 2 mM L-glutamine. […]
Simultaneously, the controls representing 100% cell viability, 0% cell viability (the cells treated with 10% DMSO), no cell control and vehiculum controls were also prepared in triplicates. […] Eventually, a colorimetric assay reagent CellTiter 96 AQueous One Solution Cell Proliferation Assay was added, and absorption was measured.

[4] = system: Pseudomonas aeruginosa CCM 3955, ATCC 27853; assay: Antibacterial microdilution broth MIC, PA; type: cell-based
[5] = system: Mycolicibacterium smegmatis DSM 43465; assay: Antimycobacterial microdilution broth MIC (resazurin), M. smegmatis; type: cell-based; details: DSM43465, read-out: MIC M. smegmatis
U‐87 MG cell line = assay: Cytotoxicity CellTiter 96, U-87 MG; type: cell-based; details: Homo sapiens, 24 h incubation
Experimental: as §1
Cytotoxicity determination […]
as §2
in triplicates according to their solubility. Simultaneously, the controls representing 100% cell viability, 0% cell viability (the cells treated with 10% DMSO), no cell control and vehiculum controls were also […]
the reagent from the kit CellTiter 96 AQueous One Solution Cell Proliferation Assay (CellTiter 96; PROMEGA, Fitchburg, USA) was added. After 2h incubation at 37 °C, absorbance of samples was recorded at 490 nm (TECAN, Infinita M200, Austria). A standard toxicological parameter IC50 was calculated by nonlinear regression from a semilogarithmic plot of incubation concentration versus percentage of absorbance relative to untre ated controls using GraphPad Prism 8 software. […]
Kaighn's Modification of Ham's F-12 Medium and human glioblastoma astrocytoma U-87 MG cell line, […]
Glucose medium. All cultures were supplemented with 10% fetal bovine serum, 1% non-essential amino acids (A498, HK-2 and U-87 MG), 1% sodium pyruvate (A498, HK-2 and U-87 MG) and 2 mM L-glutamine. All cell culture consumables were purchased from Merck (Darmstadt, Germany). The cells

[6] = system: Staphylococcus aureus CCM 4223, ATCC 29213; assay: Antibacterial microdilution broth MIC, SA; type: cell-based; details: Staphylococcus aureus
[7] = system: Mycobacterium tuberculosis H37Ra; assay: Antimycobacterial microdilution broth MIC (resazurin), Mtb H37Ra; type: cell-based; details: for MIC: Mycobacterium tuberculosis, H37RA, read-out: MIC Mtb H37Ra
[8] = system: Klebsiella pneumoniae CCM 4415, ATCC 10031; assay: Antibacterial microdilution broth MIC, KP
[9] = system: Escherichia coli CCM 3954, ATCC 25922; assay: Antibacterial microdilution broth MIC, EC; type: cell-based
[10] = system: Candida krusei CCM 8271, ATCC 6258; assay: Antifungal microdilution broth MIC, CK; details: Pichia kudriavzevii
[11] = system: Lichtheimia corymbifera CCM 8077; assay: Antifungal microdilution broth MIC, LC
[12] = CCM8077, 24 h, read-out: MIC LC 24h
[13] = CCM8077, 48 h, read-out: MIC LC 48h

Structure (SMILES)	IC50 (HepG2 cell line; Homo sapiens, HepG2, 24 h)	MIC [1]	MIC ([2]; 72 h, read-out: MIC TI 72h)	MIC ([2]; 120 h, read-out: MIC TI 120h)	MIC ([3]; 24 h, read-out: MIC SE 24h)	MIC ([3]; 48 h, read-out: MIC SE 48h)	IC50 (HK‐2 cell line)	MIC ([4]; 24 h, read-out: MIC PA 24h)	MIC ([4]; 48 h, read-out: MIC PA 48h)	MIC [5]	MIC ([6]; 24 h, read-out: MIC SA 24h)	MIC ([6]; 48 h, read-out: MIC SA 48h)	MIC ([7]; Calculated from MIC (μg/mL))	MIC [7]	MIC KP 24h [8]	MIC KP 48h [8]	MIC ([9]; 24 h, read-out: MIC EC 24h)	MIC ([9]; 48 h, read-out: MIC EC 48h)	MIC ([10]; 24 h, read-out: MIC CK 24h)	MIC ([10]; 48 h, read-out: MIC CK 48h)	further results
O=C(Cc1cccc(Cl)c1)Nc1ccc(Cl)cn1 [Compound 17, 2-(3-chlorophenyl)-N-(5-chloropyridin-2-yl)acetamide]	112 µM	250 µg/mL (≈ 889 µM)	500 µM (≈ 141 µg/mL)	500 µM (≈ 141 µg/mL)	> 500 µM	> 500 µM	138 µM	> 500 µM	> 500 µM	> 500 µg/mL	> 500 µM	> 500 µM	445 µM	125 µg/mL	> 500 µM	> 500 µM	> 500 µM	> 500 µM	> 500 µM	> 500 µM	IC50 (U‐87 MG cell line): 161 µM; MIC [11, 12]: > 500 µM; MIC [11, 13]: > 500 µM
COc1ccc(CC(=O)Nc2cccc(Cl)n2)cc1 [Compound 12, 2-(4-methoxyphenyl)-N-(6-chloropyridin-2-yl)acetamide]	> 500 µM	62.5 µg/mL (≈ 226 µM)	> 500 µM	> 500 µM	500 µM (≈ 138 µg/mL)	> 500 µM	> 250 µM	> 500 µM	> 500 µM	62.5 µg/mL (≈ 226 µM)	500 µM (≈ 138 µg/mL)	500 µM (≈ 138 µg/mL)	56.3 µM	15.6 µg/mL	> 500 µM	> 500 µM	> 500 µM	> 500 µM	> 500 µM	> 500 µM	IC50 (HepG2 cell line): 516 µM; SI (selectivity index) ([7]; SI = HepG2 IC50 (μM)/MIC MtbH37Ra (μM), calculated for compounds with MIC ≤ 31.25 μg/mL): 9.2; MIC [11, 12]: > 500 µM; MIC [11, 13]: > 500 µM
O=C(Cc1ccccc1C(F)(F)F)Nc1cccc(Cl)n1 [Compound 24]	64.6 µM	> 500 µg/mL	500 µM (≈ 157 µg/mL)	500 µM (≈ 157 µg/mL)	> 500 µM	> 500 µM	247 µM	> 500 µM	> 500 µM	> 500 µg/mL	> 500 µM	> 500 µM	> 1590 µM	> 500 µg/mL	> 500 µM	> 500 µM	> 500 µM	> 500 µM	> 500 µM	> 500 µM	IC50 (U‐87 MG cell line): > 250 µM; MIC [11, 12]: > 500 µM; MIC [11, 13]: > 500 µM
O=C(Cc1cccc(C(F)(F)F)c1)Nc1ccc(Cl)cn1 [Compound 26]	52.9 µM	> 500 µg/mL	500 µM (≈ 157 µg/mL)	500 µM (≈ 157 µg/mL)	> 500 µM	> 500 µM	29.9 µM	> 500 µM	> 500 µM	125 µg/mL (≈ 397 µM)	> 500 µM	> 500 µM	> 1590 µM	> 500 µg/mL	> 500 µM	> 500 µM	> 500 µM	> 500 µM	> 500 µM	> 500 µM	IC50 (U‐87 MG cell line): 158 µM; MIC [11, 12]: > 500 µM; MIC [11, 13]: > 500 µM
